Laboratory results as given in patent US8501725B2, “Synergistic combination of flumetsulam or diclosulam with zinc pyrithione” (Dow Global Technologies LLC, priority 2010, dated 2013).
Where two headings read alike, the source gives them in different places.

Key:
Type in all cases: cell-based
[1] = tested on: Gloeocapsa sp. and Oscillatoria sp. (Gs + Os); experiment: Algal efficacy testing, modified ASTM 5589, paint film (both studies); conditions: four weeks; for MIC: 672 h, read-out: Total conc (minimum inhibitory concentration chosen for SI); for MIC / Total conc (minimum inhibitory concentration chosen for SI): in acrylic latex paint, dry film; for % inhibition: at the Total conc given
Procedure: (§1) Sample preparation: A single or blend of biocides was post added into white acrylic latex paint free of biocides to give a maximum total active ingredient/s concentration tested. This paint was then diluted with a biocide free acrylic latex paint to give targeted concentrations for the testing. Depending on the type of biocide blends tested, the total biocides concentrations varies from 200 to 5000 ppm. After biocides addition or dilution, each sample was hand mixed for at least a minute until uniformity is achieved. Each of the paint samples as well as a control sample (containing no biocide) were used to prepare films on black plastic-vinyl chloride/acetate copolymer panels (LENETA, Mahwah, N.J.) using a 3 mil (0.0762 mm) bird bar applicator. The panels were thoroughly dried for at least 2 days avoiding direct exposure to sunlight. Square discs ([…]) were cut out from each panel and were used as the substrate for fungal and algal efficacy tests. This sample size allowed for an agar border when the sample disc was placed into the well of the test plate. Each sample was tested in duplicate
(§2) Test conditions: The appropriate media (BOLD'S 3N for Chlorophytes, BG-11 for Cyanobacteria, and PDA for fungi) were used to support microbial growth. The test plates were maintained at room temp (25° C.-26° C.), in a cycled light-dark environment, for four weeks for algae. Plates for fungal challenge tests were maintained at 30 C for four weeks. At the end of the incubation period the samples were scored for percent area covered by visible microbial growth.
(§3) ASTM 5589 is a standard accelerated test method for determining resistance of various coatings (including paints) to algal defacement. To accommodate for high-throughput screening, this method was scaled down from petri plates to 6-well plates. A single coupon was placed with a pair of sterile forceps at the center of the agar plug (on top) with the painted surface facing upwards. Algal inoculums were prepared by mixing equal concentrations (1×10^6 cfu/ml) and equal volumes (depending on number of samples to be inoculated) of like growing organisms.
(§4) In Flumetsulam+various IT synergy study, three pool of mixed algae were prepared as the test inoculum, Gloeocapsa sp. and Oscillatoria sp. a mix of cyanobacteria grown on BG-11 media; Chlorella sp., Chlorella kessleri, and Nostoc commune are unicellular chlorphytes that were mixed and grown on Bold media; Trentepohlia aurea, Tretepohlia odorata, and Calotrix parientina are filamentous algae that were mixed and grown on Bold media.
(§5) In Diclosulam+various IT synergy study, only two pools of mixed algae were prepared; Gloeocapsa sp. and Oscillatoria sp. grown on BG-11 media and Chlorella sp., Chlorella kessleri, Nostoc commune, Trentepohlia aurea, Tretepohlia odorata, and Calotrix parientina grown on Bold media
(§6) Each well that contains a tested coupon was inoculated with 400 μl of organism mixture (1×10^6 cfu/ml) making sure that the whole surface (paint film as well as the agar surrounding it) was evenly covered. The plates were incubated at room temp (25° C.-26° C.) with cyclic exposure to light (OTT-Lite model # OTL4012P, 40 Watt, 26KLumen) and dark phases, for a period of four weeks. The total area covered was evaluated at the end of each week according to percent area covered in 5% increments.
(§7) The SI is calculated based on F. C.
(§8) NE=no end point at the concentration tested that will meet the percent inhibition criteria set in each SI calculation

[2] = tested on: Aa + Tv + An + Pf + Ap + Ch; experiment: Fungal efficacy testing, modified ASTM 5590, paint film (Diclosulam + ZPT study, single pool of all fungi); conditions: four weeks; for % inhibition: at the Total conc given; for Total conc: in acrylic latex paint, dry film, 30 C
Procedure: as §1, §2
ASTM 5590 is a standard accelerated test method for determining resistance of various coatings (including paints) to fungal defacement. To accommodate for high-throughput screening, this method was scaled down from petri plates to 6-well plates. To set up the test, an agar plug was placed at the bottom of each well of the sterile 6-well plate. A single coupon was placed with a pair of sterile forceps at the center of the agar plug (on top) with the painted surface facing upwards. Fungal inoculums were prepared by mixing equal concentrations (1×10^6 cfu/ml) and equal volumes (depending on number of samples to be tested) of like growing organisms. For Flumetsulam+various IT synergy study, three pools of mixed fungi were prepared as the test inoculum. Cladosporium herbarum was mixed with Aureobasidium pullulans; Aspergillus niger was mixed with Penicillium funiculosum and Alternaria alternata was mixed with Trichoderma viride. For Diclosulam+various IT synergy study, all above fungi were mixed as a single pool. […] The total percent area covered was evaluated and recorded at the end of each week after the 2nd week and recorded in increments of 5%.
(§9) The SI is calculated based on F. C. […]

[3] = tested on: Chlorella sp., Chlorella kessleri, Nostoc commune, Trentepohlia aurea, Tretepohlia odorata, and Calotrix parientina (Cp + To + Ta + Cs + Ck + Nc); experiment: Algal efficacy testing, modified ASTM 5589, paint film (Diclosulam + ZPT study); conditions: four weeks; for % inhibition: at the Total conc given
Procedure: as §1, §2, §3, §5
(§10) Each well that contains a tested coupon was inoculated with 400 μl of organism mixture (1×10^6 cfu/ml) making sure that the whole surface (paint film as well as the agar surrounding it) was evenly covered. […] The total area covered was evaluated at the end of each week according to percent area covered in 5% increments.
as §9

[4] = as above; conditions: Nostoc commune, 672 h; Cp + To + Ta + Cs + Ck + Nc; in acrylic latex paint, dry film; four weeks; read-out: Total conc (minimum inhibitory concentration chosen for SI)
Procedure: as §1, §2, §3, §5, §10, §9

[5] = tested on: Aspergillus niger mixed with Penicillium funiculosum (AnPf); experiment: Fungal efficacy testing, modified ASTM 5590, paint film (Flumetsulam + ZPT study); conditions: four weeks; for % inhibition: at the Total conc given
Procedure: as §1, §2
(§11) ASTM 5590 is a standard accelerated test method for determining resistance of various coatings (including paints) to fungal defacement. To accommodate for high-throughput screening, this method was scaled down from petri plates to 6-well plates. To set up the test, an agar plug was placed at the bottom of each well of the sterile 6-well plate. A single coupon was placed with a pair of sterile forceps at the center of the agar plug (on top) with the painted surface facing upwards. Fungal inoculums were prepared by mixing equal concentrations (1×10^6 cfu/ml) and equal volumes (depending on number of samples to be tested) of like growing organisms. For Flumetsulam+various IT synergy study, three pools of mixed fungi were prepared as the test inoculum. Cladosporium herbarum was mixed with Aureobasidium pullulans; Aspergillus niger was mixed with Penicillium funiculosum and Alternaria alternata was mixed with Trichoderma viride. For Diclosulam+various IT synergy study, all above fungi were mixed as a single pool. Each well was inoculated with 400 μl of organism mixture (1×10^6 cfu/ml) making sure that the whole surface (paint film as well as the agar surrounding it) was evenly covered. The plates were incubated at 30° C. in presence of moisture, for a period of four weeks. The total percent area covered was evaluated and recorded at the end of each week after the 2nd week and recorded in increments of 5%.
as §7, §8

[6] = tested on: Cladosporium herbarum mixed with Aureobasidium pullulans (ApCh); experiment: as above; conditions: four weeks; for % inhibition: at the Total conc given
Procedure: as §1, §2, §11, §7, §8

[7] = tested on: Alternaria alternata mixed with Trichoderma viride (AaTv); experiment: as above; conditions: four weeks; for % inhibition: at the Total conc given
Procedure: as §1, §2, §11, §7, §8

[8] = tested on: Chlorella sp., Chlorella kessleri, and Nostoc commune (Cs + Ck + Nc); experiment: Algal efficacy testing, modified ASTM 5589, paint film (Flumetsulam + ZPT study); conditions: four weeks; for % inhibition: at the Total conc given
Procedure: as §1, §2, §3, §4, §6, §7, §8

[9] = tested on: Trentepohlia aurea, Tretepohlia odorata, and Calotrix parientina (Cp + To + Ta); experiment: as above; conditions: four weeks; for % inhibition: at the Total conc given; for Total conc (minimum inhibitory concentration chosen for SI): in acrylic latex paint, dry film, 25-26 C, light-dark
Procedure: as §1, §2, §3, §4, §6, §7, §8

[10] = in acrylic latex paint, dry film, 30 C

Row | Compound | % inhibition ([1]; Diclosulam and ZPT study) [%] | % inhibition [2] [%] | Total conc [2] [ppm] | % inhibition [3] [%] | % inhibition [5] [%] | % inhibition [6] [%] | % inhibition [7] [%] | % inhibition ([1]; Flumetsulam and ZPT study) [%] | % inhibition [8] [%] | % inhibition [9] [%] | Total conc (minimum inhibitory concentration chosen for SI) [9] [ppm] | other results
1 | CCOc1nc(F)cc2nc(S(=O)(=O)Nc3c(Cl)cccc3Cl)nn12 [Diclosulam, N-(2,6-dichlorophenyl)-5-ethoxy-7-fluoro[1,2,4]triazolo[1,5-c]pyrimidine-2-sulfonamide] | 100 | 0 | 3500 | 80 |  |  |  |  |  |  |  | MIC ([1]; Diclosulam and ZPT study): 438 µg/mL; MIC [4]: 3500 µg/mL
2 | Cc1ccn2nc(S(=O)(=O)Nc3c(F)cccc3F)nc2n1 [Flumetsulam, N-(2,6-difluorophenyl)-5-methyl[1,2,4]triazolo[1,5-a]pyrimidine-2-sulfonamide] |  |  |  |  | 0 | 25 | 0 | 0 | 90 | 100 | 2625 | MIC ([5]; Aspergillus niger, 672 h, in acrylic latex paint, dry film, 30 C, read-out: Total conc (minimum inhibitory concentration chosen for SI)): 3500 µg/mL; MIC ([6]; Cladosporium herbarum, 672 h, in acrylic latex paint, dry film, 30 C, read-out: Total conc (minimum inhibitory concentration chosen for SI)): 3500 µg/mL; MIC ([7]; Alternaria alternata, 672 h, in acrylic latex paint, dry film, 30 C, NE = no end point at the concentration tested, read-out: Total conc (minimum inhibitory concentration chosen for SI)): 3500 µg/mL; MIC ([1]; Flumetsulam and ZPT study): 2620 µg/mL; MIC ([8]; Nostoc commune, 672 h, in acrylic latex paint, dry film, 25-26 C, light-dark, read-out: Total conc (minimum inhibitory concentration chosen for SI)): 3500 µg/mL
3 | zinc pyrithione [ZPT] | 100 | 0 | 5000 | 100 | 100 | 100 | 50 | 100 | 100 | 100 | 625 | Total conc (minimum inhibitory concentration chosen for SI) [5, 10]: 625 ppm; Total conc (minimum inhibitory concentration chosen for SI) [6, 10]: 625 ppm; Total conc (minimum inhibitory concentration chosen for SI) ([7]; in acrylic latex paint, dry film, 30 C, NE = no end point at the concentration tested): 5000 ppm; Total conc (minimum inhibitory concentration chosen for SI) ([1]; Diclosulam and ZPT study): 625 ppm; Total conc (minimum inhibitory concentration chosen for SI) ([1]; Flumetsulam and ZPT study): 625 ppm; Total conc (minimum inhibitory concentration chosen for SI) ([8]; in acrylic latex paint, dry film, 25-26 C, light-dark): 625 ppm; Total conc (minimum inhibitory concentration chosen for SI) ([3]; in acrylic latex paint, dry film): 625 ppm
